According to patent publication US20230075521A1, “RESVERATROL PHARMACEUTICAL COMPOSITIONS AND METHODS OF USE THEREOF” (priority 2021, published 2023):
Values joined by “and” are separate entries in the source; they are usually repeats but may differ in a detail not shown here. Equal values may be shown once.

System: ERC cytokines and chemokines
Assay: Entorhinal cortex (ERC) cytokine and chemokine levels (48-Plex ProcartaPlex, Luminex)
Format: in vivo, 3×Tg-AD mouse
Procedure: At study endpoints (age 15 months for sub-chronic study, age 13 months for long-term study), mice were anaesthetized with isoflurane and blood was collected by transcardial puncture. Blood was stored on ice and then centrifuged at 10,000×g at 4° C. for 10 min to collect serum and stored at −80° C. until use. The brain was then extracted and quickly dissected on ice to collect prefrontal cortex (PFC), hippocampus, entorhinal cortex (ERC), and cerebellum, which were immediately frozen in liquid nitrogen. The samples were stored at −80° C. until processed for RNA or protein extraction. For each mouse, brain regions from one hemisphere were used for RNA preparation and qPCR and sections from the other hemisphere were used for protein work including ELISAs.
Protein lysates were extracted by sonicating tissue in M-PER Mammalian Protein Extraction Reagent (Thermo Fisher Scientific) supplemented with protease inhibitor (Thermo Fisher Scientific) and phosphatase inhibitor (Thermo Fisher Scientific). Total protein was quantified using Pierce BCA Protein Assay Kit (Thermo Fisher Scientific) and read at 562 nm using EnVision (Perkin Elmer).
Human Aβ1-42, Aβ1-40, phosphorylated tau Ser 396, phosphorylated tau Thr181, and total tau were measured in brain tissue by enzyme linked immuno-sorbent assay (ELISA; Invitrogen by Thermo) and normalized to total protein. All the kits were used as per the manufacturer's instructions and measured using the EnVision® multimode plate reader (Perkin Elmer). Serum and brain tissue protein extracts were analyzed for cytokine and chemokine levels using the Immune Monitoring 48-Plex Mouse ProcartaPlex™ Panel (Invitrogen by Thermo) according to manufacturer's standard protocol and read using Luminex xMAP (multi-analyte profiling) technology.

[1] = female 3×Tg-AD mice, 50 mg/kg oral, 9 months
[2] = female 3×Tg-AD mice, 50 mg/kg oral, 9 months, 50 mg/kg
[3] = male 3×Tg-AD mice, 50 mg/kg oral, 9 months
[4] = male 3×Tg-AD mice, 50 mg/kg oral, 9 months, 50 mg/kg

Structure (SMILES): Oc1ccc(/C=C/c2cc(O)cc(O)c2)cc1 [RSV, (trans-)resveratrol]
- IFNg ERC level, change vs vehicle [1]: -0.64 pg/mL
- IL-1b ERC level, change vs vehicle [1]: -1.12 pg/mL
- IL-2 ERC level, change vs vehicle [1]: 18.07 pg/mL
- IL-2RA ERC level, change vs vehicle [1]: -0.95 pg/mL
- IL-3 ERC level, change vs vehicle [1]: -0.34 pg/mL
- IL-5 ERC level, change vs vehicle [1]: -6.60 pg/mL
- IL-9 ERC level, change vs vehicle [1]: 7.25 pg/mL
- IL- 10 ERC level, change vs vehicle [1]: 0.54 pg/mL
- IL-12p70 ERC level, change vs vehicle [1]: 1.75 pg/mL
- IL-13 ERC level, change vs vehicle [1]: 1.74 pg/mL
- IL-17A ERC level, change vs vehicle [1]: 0.69 pg/mL
- IL-22 ERC level, change vs vehicle [1]: -0.13 pg/mL
- IL-25/IL-17 ERC level, change vs vehicle [1]: -23.30 pg/mL
- IL-27 ERC level, change vs vehicle [1]: -0.87 pg/mL
- IL-33 ERC level, change vs vehicle [1]: -56.09 pg/mL
- LIX ERC level, change vs vehicle [1]: -12.67 pg/mL
- M-CSF ERC level, change vs vehicle [1]: -0.32 pg/mL
- MCP-3 ERC level, change vs vehicle [1]: 1.94 pg/mL
- MIP-2 ERC level, change vs vehicle [1]: -2.59 pg/mL
- RANTES ERC level, change vs vehicle [1]: -1.97 pg/mL
- TNFa ERC level, change vs vehicle [1]: -10.12 pg/mL
- VEGF-A ERC level, change vs vehicle [1]: 4.80 pg/mL
- sRANKL ERC level, change vs vehicle [1]: 0.70 pg/mL
- IL-6 ERC level, change vs vehicle [2]: 5.44 ± 2.1 pg/mL and 5.44 pg/mL
- IL-7 ERC level, change vs vehicle [2]: 40.12 ± 15.04 pg/mL and 40.12 pg/mL
- IL-18 ERC level, change vs vehicle [2]: -84.91 ± 35.55 pg/mL and -84.91 pg/mL
- IL-19 ERC level, change vs vehicle [2]: 105.7 ± 22.58 pg/mL and 105.70 pg/mL
- IL-23 ERC level, change vs vehicle [2]: 42.53 ± 10.42 pg/mL and 42.53 pg/mL
- IL-28 ERC level, change vs vehicle [2]: 146.9 ± 34.42 pg/mL and 146.90 pg/mL
- IP-10 ERC level, change vs vehicle [2]: 21.13 ± 4.32 pg/mL and 21.13 pg/mL
- IFNg ERC level, change vs vehicle [3]: 1.51 pg/mL
- IL-1b ERC level, change vs vehicle [3]: 0.97 pg/mL
- IL-2 ERC level, change vs vehicle [3]: 31.55 pg/mL
- IL-3 ERC level, change vs vehicle [3]: 0.18 pg/mL
- IL-5 ERC level, change vs vehicle [3]: 3.37 pg/mL
- IL-6 ERC level, change vs vehicle [3]: 2.70 pg/mL
- IL-7 ERC level, change vs vehicle [3]: 41.08 pg/mL
- IL-9 ERC level, change vs vehicle [3]: 19.29 pg/mL
- IL-12p70 ERC level, change vs vehicle [3]: 0.61 pg/mL
- IL-13 ERC level, change vs vehicle [3]: 5.16 pg/mL
- IL-17A ERC level, change vs vehicle [3]: 2.77 pg/mL
- IL-18 ERC level, change vs vehicle [3]: 42.33 pg/mL
- IL-19 ERC level, change vs vehicle [3]: 104.30 pg/mL
- IL-22 ERC level, change vs vehicle [3]: 2.18 pg/mL
- IL-23 ERC level, change vs vehicle [3]: 41.51 pg/mL
- IL-25/IL-17 ERC level, change vs vehicle [3]: 15.36 pg/mL
- IL-27 ERC level, change vs vehicle [3]: 2.75 pg/mL
- IL-28 ERC level, change vs vehicle [3]: 130.90 pg/mL
- IL-33 ERC level, change vs vehicle [3]: 64.64 pg/mL
- IP-10 ERC level, change vs vehicle [3]: 13.80 pg/mL
- LIX ERC level, change vs vehicle [3]: 16.39 pg/mL
- M-CSF ERC level, change vs vehicle [3]: 0.50 pg/mL
- MCP-3 ERC level, change vs vehicle [3]: 0.76 pg/mL
- RANTES ERC level, change vs vehicle [3]: 1.40 pg/mL
- TNFa ERC level, change vs vehicle [3]: 23.73 pg/mL
- VEGF-A ERC level, change vs vehicle [3]: 3.55 pg/mL
- sRANKL ERC level, change vs vehicle [3]: 2.59 pg/mL
- IL-2RA ERC level, change vs vehicle [4]: 0.77 ± 0.043 pg/mL and 0.77 pg/mL
- MIP-2 ERC level, change vs vehicle [4]: 7.51 ± 2.55 pg/mL and 7.51 pg/mL
- IL-9 in ERC, increase vs vehicle (males and females combined): 65.4 ± 25.69 pg/mL
